Data published in patent US6833262B1 (priority 1999, dated 2004).
Read-outs that look alike come from different tables or passages of the source. Peptide text beside a SMILES is read from it.

Columns and labels:
periodontain [1] = type: biochemical, Porphyromonas gingivalis
periodontain [2] = test: Activation of periodontain by reducing agents and additives; type: biochemical, Porphyromonas gingivalis; conditions: for Periodontain activity achieved with reducing agent: reducing agent at 0.1 mM concentration
[3] = system: human α1-proteinase inhibitor
Kgp = Kgp (Porphyromonas gingivalis, UniProt B2RLK2); conditions: cited from earlier work
Rgp's = conditions: cited from earlier work

## NC(N)=NCCC[C@H](NC(=O)[C@@H]1CCCN1C(=O)[C@H](N)Cc1ccccc1)C(=O)CCl [Phe—Pro—Arg chloromethyl ketone, Phe-Pro-Arg chloromethyl ketone]
Periodontain [1]
  Inhibition of periodontain (in words): readily inhibited
Periodontain [1]; 10 µM
  Percent Inhibition: 96%

## N[C@@H](CS)C(=O)O [free cysteine, cysteine]
Periodontain [2]
  Periodontain activity achieved with reducing agent: full activity

## O[C@H](CS)[C@H](O)CS (racemic) [DTT, dithiothreitol]
Periodontain [2]
  Periodontain activity achieved with reducing agent: full activity

## NCCCC[C@H](NC(=O)[C@H](Cc1ccccc1)NC(=O)OCc1ccccc1)C(=O)COC(=O)c1ccccc1 [Z-Phe—Lys benzoyloxy methyl ketone, Z-Phe-Lys benzoyloxy methyl ketone]
Periodontain [1]
  Inhibition of periodontain (in words): readily inhibited
Periodontain [1]; 10 µM
  Percent Inhibition: 99%

## ethylenediaminetetra-acetate [EDTA]
Periodontain [1]
  Percent Inhibition: 0%

## Tosyl-L-lysine chloromethyl ketone
Periodontain [1]
  Inhibition of periodontain (in words): readily inhibited
  Percent Inhibition: 91%

## periodontain (mature native heterodimer purified from P. gingivalis HG66 culture fluid)
Phe-Leu-Glu-pNA
  hydrolysis of a synthetic pNA substrate: no hydrolysis was detected
[3]
  Specific Activity (α1-PI inactivation assay, final TSK gel filtration step): 368 units/mg

## NC(=O)CI [Idoacetamide]
Periodontain [1]
  Inhibition of periodontain (in words): readily inhibited
  Percent Inhibition: 100%

## calcium ions
Periodontain [2]; data not shown
  Stabilizing effect on periodontain: did not have a stabilizing effect

## CC(=O)N[C@@H](CC(C)C)C(=O)N[C@@H](CC(C)C)C(=O)N[C@H](C=O)CCCNC(=N)N [Leupeptin]
Periodontain [1]
  Inhibition of periodontain (in words): readily inhibited
Periodontain [1]; 50 µM
  Percent Inhibition: 88%

## O=c1oc(Cl)c(Cl)c2ccccc12 [Dichloroisocoumarin, 3,4 dichloroisocoumarin]
Periodontain [1]
  Inhibition of periodontain (in words): readily inhibited
  Percent Inhibition: 2%

## OCCS [β-mercaptoethanol]
Periodontain [2]
  Periodontain activity achieved with reducing agent: full activity

## NCC(=O)NCC(=O)O [glycyl-glycine] (H-Gly-Gly-OH)
Periodontain [2]; data not shown
  Stimulation of periodontain activity: did not stimulate activity

## CC(C)C[C@H](NC(=O)[C@H]1O[C@@H]1C(=O)O)C(=O)NCCCCN=C(N)N (relative stereo) [E-64, L-trans-epoxysuccinyl-leucylamide-(4-guanidino)-butane]
Periodontain [1]
  Inhibition of periodontain (in words): readily inhibited
Periodontain [1]; 100 µM
  Percent Inhibition: 100%
Kgp
  Inhibition of Kgp: not inhibited
Rgp's
  Inhibition of Rgp's: only weakly inhibited
